Data from patent US8119690B2, “Polyunsaturated fatty acid monoglycerides, derivatives, and uses thereof” (Centre de Recherche sur les Biotechnologies Marines, priority 2007, dated 2012).
Blank lines part the entries; values can stand above or below the molecule they belong to.

How the values were obtained:
[1] = test system: PC-3 human prostate cancer cell line; test: in vitro cell viability assay (SRB), PC-3; type: cell-based; details: PC-3, at 294 μg/ml, 72 hours, read-out: growth inhibition
Description: (§1) The cell viability assay is performed to measure the relative cell viability status of cancer cells upon exposure to test compounds in comparison to a positive control (etoposide) and a negative control (vehicule). Adherent cells growing in 96-well plates are exposed to test compounds for 3 days (72 hours). […] Test compounds (composition 1 comprising compounds 1, 5 and 6) as well as positive and negative controls were tested in parallel on the same culture plate. All conditions are tested in triplicate. […] Inhibition of 50% of cell growth compared to basal condition is the lower limit indicating a positive biological response (considered as a hit). After the incubation time, total protein content is quantified following staining with the anionic dye sulforhodamine B (SRB). The detection of […], is completed by a microplate reader. […] The amount of […] is directly proportional to the number of living cells in culture. […] Cells were trypsinized using 0.25% trypsine (w/v)/0.53 mM EDTA solution (Hyclone), counted and plated at densities between 1000 and 3000 cells per well in flat bottom 96-well clear plates (Becton Dickinson) in 100 μl of appropriate culture medium supplemented with fetal bovine serum (Hyclone). […] Absorbance was read at 515 nm using a 96-well plate Multiskan Spectrum […] (Thermo Electron Corporation). […]

[2] = test system: BT-549 human breast cancer cell line; test: in vitro cell viability assay (SRB), BT-549; type: cell-based; details: BT-549, at 294 μg/ml, 72 hours, read-out: growth inhibition
Description: as §1

[3] = test system: HCT-15 human colon cancer cell line; test: in vitro cell viability assay (SRB), HCT-15; type: cell-based; details: HCT-15, at 294 μg/ml, 72 hours, read-out: growth inhibition
Description: as §1

[4] = test system: A-549 human lung cancer cell line; test: in vitro cell viability assay (SRB), A-549; type: cell-based; details: A549, A-549, at 294 μg/ml, 72 hours, read-out: growth inhibition
Description: as §1

[5] = human, in vivo
Description: Controlled amount of boiled pasta was eaten after the 4 h time point. An initial blood sample (400 μl) was collected using a lancet at a fingertip into heparin tubes followed by samples at 1, 2, 3, 4, 5, 6, 7 and 8 hour after ingestion. Plasma was separated and immediately analysed for fatty acid composition.
The relative bioavailability of fatty acids from composition 2 compared to fish oil is calculated with the formula:
The AUC (calculates area under the curve for concentration vs. time data) is calculated using linear trapezoidal rule. […] The relative bioavailability of compound 1 and compound 5 is calculated with the same formula:

[6] = test system: TNF-α; test: LPS-induced TNF-α release by THP-1 monocyte cells (ELISA); type: cell-based, human; details: THP-1 cells, 100 ng/ml LPS, 4 hours; vehicle gives 400 pg/ml; composition 3 10 μg/ml, curcumin 5 μg/ml
Description: Composition 3 (comprising compounds 1 (11%) and 5 (89%)) at final concentration of 10 μg/ml, curcumin (5 μg/ml) and a 1:1 mixture of composition 3 (10 μg/ml) and curcumin (5 μg/ml) in DMSO (1%) was used for the in vitro assay. Composition 3 prepared according to the same procedure as previously described in Example 2)
The in vitro assay allows evaluation of the potential anti-inflammatory effects of compounds on the induced-release of pro-inflammatory mediator by monocyte cells. Typical human monocyte THP-1 cells, involved in inflammatory processes, are used in this assay. Measurement of pro-inflammatory mediator TNF-α is performed by ELISA (manufactured by R&D Systems) with artificial induction of pro-inflammatory agents by LPS (E. Coli O55:B5) during 4 hours. Known anti-inflammatory agent dexametazone was used as positive control.

SMILES: COc1cc([C@@H]2c3cc4c(cc3[C@@H](O[C@@H]3O[C@@H]5CO[C@@H](C)O[C@H]5[C@H](O)[C@H]3O)[C@H]3COC(=O)[C@H]23)OCO4)cc(OC)c1O [etoposide]
inhibition at 294 µg/mL [1]: 100% | inhibition at 294 µg/mL [2]: 100% | inhibition at 294 µg/mL [3]: 100% | inhibition at 294 µg/mL [4]: 100%

relative bioavailability compared to compound 5 [5]: 2.20
SMILES: CC/C=C\C/C=C\C/C=C\C/C=C\C/C=C\CCCCCC(=O)OCC(O)CO (stereo not shown) [compound 1]

SMILES: COc1cc(/C=C/C(=O)CC(=O)/C=C/c2ccc(O)c(OC)c2)ccc1O [curcumin]
TNF-α measured [6]: 100 pg/mL

SMILES: C[C@@H]1C[C@H]2[C@@H]3CCC4=CC(=O)C=C[C@]4(C)[C@@]3(F)[C@@H](O)C[C@]2(C)[C@@]1(O)C(=O)CO [dexametazone]
TNF-α measured [6]: 125 pg/mL
